Data as given in patent publication US20110081315A1, “NOVEL MACROCYCLIC INHIBITORS OF HEPATITIS C VIRUS REPLICATION” (INTERMUNE, INC., priority 2009, published 2011).
Where two headings read alike, the source gives them in different places.

Columns and labels:
hepatitis C replicon = hepatitis C replicon EC50 assay; type: cell-based; settings: Hepatitis C virus
Summary of the method: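 Replicon EC50 determined per a referenced patent protocol; assays run at ambient temperature (23° C.) in 50 mM Tris-HCl pH 7.5 with 15% glycerol, 0.6 mM LDAO, 25 μM NS4A peptide and 10 mM DTT.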

NS3/NS4 complexes = NS3/NS4 complexes (Hepatitis C virus genotype 1a, UniProt P27958); assay: NS3/NS4 inhibition assay (IC50); type: biochemical; settings: NS3/NS4 activity; 23° C., 25 μM NS4A peptide
Sequence of NS3/NS4 complexes (P27958 1027-1657, one chain of several): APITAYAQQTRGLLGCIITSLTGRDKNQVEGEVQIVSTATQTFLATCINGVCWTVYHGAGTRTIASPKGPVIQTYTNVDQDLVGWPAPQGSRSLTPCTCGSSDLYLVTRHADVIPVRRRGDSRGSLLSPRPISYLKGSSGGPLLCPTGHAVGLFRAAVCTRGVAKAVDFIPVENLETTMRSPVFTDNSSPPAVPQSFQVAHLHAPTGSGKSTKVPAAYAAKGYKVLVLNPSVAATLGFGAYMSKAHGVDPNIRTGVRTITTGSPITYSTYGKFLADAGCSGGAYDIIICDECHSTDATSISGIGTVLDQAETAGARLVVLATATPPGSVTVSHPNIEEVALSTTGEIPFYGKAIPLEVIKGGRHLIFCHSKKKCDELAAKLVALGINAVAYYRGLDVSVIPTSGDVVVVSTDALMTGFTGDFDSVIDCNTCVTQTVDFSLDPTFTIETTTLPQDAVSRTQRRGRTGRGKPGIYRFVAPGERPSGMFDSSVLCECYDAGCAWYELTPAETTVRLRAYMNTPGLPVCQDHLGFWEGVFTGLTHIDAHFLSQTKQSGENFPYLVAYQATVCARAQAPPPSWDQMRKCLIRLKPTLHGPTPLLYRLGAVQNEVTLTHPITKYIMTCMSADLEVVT
Summary of the method: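 First, NS3 and NS4 are complexed; test compounds are then titrated against the complex at room temperature (23° C.) in Tris-HCl buffer, pH 7.5, supplemented with glycerol (15%), LDAO (0.6 mM), DTT (10 mM) and NS4A peptide (25 μM) to give IC50. Separately, replicon cells give EC50.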

[1] = hepatitis C replicon, read-out: EC50

Row | Structure (SMILES) | EC50 (hepatitis C replicon; [1]) [nM] | IC50 (NS3/NS4 complexes) [nM] | EC50 (hepatitis C replicon) [nM]
1 | Cc1csc(-c2cccc3c2nc(O[C@@H]2C[C@H]4C(=O)N[C@]5(C(=O)NS(=O)(=O)C6CC6)C[C@H]5/C=C\CCCCC[C@H](NC(=O)OC(C)(C)C)C(=O)N4C2)n3C(C)C)n1 [Compound 215] | < 10 | < 10 | –
2 | CC(C)n1c(O[C@@H]2C[C@H]3C(=O)N[C@]4(C(=O)NS(=O)(=O)N(C)C)C[C@H]4/C=C\CCCCC[C@H](NC(=O)OC(C)(C)C)C(=O)N3C2)nc2c(C(F)(F)F)cccc21 [Compound 291] | < 10 | < 10 | –
3 | CN(C)S(=O)(=O)NC(=O)[C@@]12C[C@H]1/C=C\CCCCC[C@H](NC(=O)OC(C)(C)C)C(=O)N1C[C@H](Oc3nc4ccccc4nc3-c3ccccc3)C[C@H]1C(=O)N2 [Compound 306] | 10 to 100 | < 10 | –
4 | CC(C)c1nc(-c2cccc3c2nc(O[C@@H]2C[C@H]4C(=O)N[C@]5(C(=O)NS(=O)(=O)N(C)C)C[C@H]5/C=C\CCCCC[C@H](NC(=O)OC(C)(C)C)C(=O)N4C2)n3C(C)C)oc1C(C)C [Compound 1211] | < 10 | < 10 | –
5 | CC(C)n1c(O[C@@H]2C[C@H]3C(=O)N[C@]4(C(=O)NS(=O)(=O)C5(C)CC5)C[C@H]4/C=C\CCCCC[C@H](Nc4ccccc4)C(=O)N3C2)nc2c(N)cccc21 [Compound 1408] | 10 to 100 | < 10 | –
6 | CC(C)n1c(O[C@@H]2C[C@H]3C(=O)N[C@]4(C(=O)NS(=O)(=O)C5(C)CC5)C[C@H]4/C=C\CCCCC[C@H](NC(=O)O[C@@H]4C[C@@H]5C[C@@H]5C4)C(=O)N3C2)nc2c(-c3nc(-c4ccccc4)cs3)cccc21 [Compound 1731] | < 10 | < 10 | –
7 | CC(C)NC(=O)Nc1cccc2c1nc(O[C@@H]1C[C@H]3C(=O)N[C@]4(C(=O)NS(=O)(=O)C5(C)CC5)C[C@H]4/C=C\CCCCC[C@H](Nc4ccccc4)C(=O)N3C1)n2C(C)C [Compound 1407] | 10 to 100 | < 10 | –
8 | CC(C)n1cnc2cc(O[C@@H]3C[C@H]4C(=O)N[C@]5(C(=O)NS(=O)(=O)C6(C)CC6)C[C@H]5/C=C\CCCCC[C@H](NC(=O)OC(C)(C)C)C(=O)N4C3)ccc21 [Compound 297] | > 100 | < 10 | –
9 | Cc1nc2cc(O[C@@H]3C[C@H]4C(=O)N[C@]5(C(=O)NS(=O)(=O)C6(C)CC6)C[C@H]5/C=C\CCCCC[C@H](NC(=O)OC(C)(C)C)C(=O)N4C3)ccc2o1 [Compound 1251] | 10 to 100 | < 10 | –
10 | CC(C)n1c(O[C@@H]2C[C@H]3C(=O)N[C@]4(C(=O)NS(=O)(=O)N(C)C)C[C@H]4/C=C\CCCCC[C@H](NC(=O)OC(C)(C)C)C(=O)N3C2)nc2c(-c3nc(Cc4ccccc4)cs3)cccc21 [Compound 1768] | < 10 | < 10 | –
11 | CC(C)n1cnc2cnc(O[C@@H]3C[C@H]4C(=O)N[C@]5(C(=O)NS(=O)(=O)C6CC6)C[C@H]5/C=C\CCCCC[C@H](NC(=O)OC(C)(C)C)C(=O)N4C3)nc21 [Compound 505] | > 100 | < 10 | –
12 | CC(C)Cc1nc2ccccc2nc1O[C@@H]1C[C@H]2C(=O)N[C@]3(C(=O)NS(=O)(=O)N(C)C)C[C@H]3/C=C\CCCCC[C@H](NC(=O)OC(C)(C)C)C(=O)N2C1 [Compound 307] | 10 to 100 | < 10 | –
13 | CC(C)n1c(O[C@@H]2C[C@H]3C(=O)N[C@]4(C(=O)NS(=O)(=O)C5(C)CC5)C[C@H]4/C=C\CCCCC[C@H](Nc4ccc(F)c(C(F)(F)F)c4)C(=O)N3C2)nc2cncnc21 [Compound 502] | 10 to 100 | < 10 | –
14 | CC(C)c1nc2ccccc2nc1O[C@@H]1C[C@H]2C(=O)N[C@]3(C(=O)NS(=O)(=O)N(C)C)C[C@H]3/C=C\CCCCC[C@H](NC(=O)OC(C)(C)C)C(=O)N2C1 [Compound 305] | < 10 | < 10 | –
15 | CC(C)n1c(O[C@@H]2C[C@H]3C(=O)N[C@]4(C(=O)NS(=O)(=O)N(C)C)C[C@H]4/C=C\CCCCC[C@H](NC(=O)OC(C)(C)C)C(=O)N3C2)nc2c(Cl)cccc21 [Compound 264] | < 10 | < 10 | –
16 | Cc1nc2ccccc2nc1O[C@@H]1C[C@H]2C(=O)N[C@]3(C(=O)NS(=O)(=O)C4(C)CC4)C[C@H]3/C=C\CCCCC[C@H](Nc3ccccc3)C(=O)N2C1 [Compound 310] | 10 to 100 | < 10 | –
17 | CC(C)c1nc(-c2cccc3c2nc(O[C@@H]2C[C@H]4C(=O)N[C@]5(C(=O)NS(=O)(=O)N(C)C)C[C@H]5/C=C\CCCCC[C@H](Nc5ccccc5)C(=O)N4C2)n3C(C)C)sc1C(C)C [Compound 1218] | > 100 | < 10 | –
18 | CC(C)n1c(O[C@@H]2C[C@H]3C(=O)N[C@]4(C(=O)NS(=O)(=O)C5(C)CC5)C[C@H]4/C=C\CCCCC[C@H](NC(=O)OC(C)(C)C)C(=O)N3C2)nc2c(-c3csc(N4CCOCC4)n3)cccc21 [Compound 1704] | < 10 | < 10 | –

Row | Structure (SMILES) | EC50 (hepatitis C replicon; [1]) [nM] | IC50 (NS3/NS4 complexes) [nM] | EC50 (hepatitis C replicon) [nM]
19 | CC(C)n1c(O[C@@H]2C[C@H]3C(=O)N[C@]4(C(=O)NS(=O)(=O)C5(C)CC5)C[C@H]4/C=C\CCCCC[C@H](Nc4ccccc4)C(=O)N3C2)nc2c(-c3ccc(OC(F)(F)F)cc3)cccc21 [Compound 249] | > 100 | < 10 | –
20 | CC(C)n1c(O[C@@H]2C[C@H]3C(=O)N[C@]4(C(=O)NS(=O)(=O)N(C)C)C[C@H]4/C=C\CCCCC[C@H](NC(=O)OC(C)(C)C)C(=O)N3C2)nc2c(-c3nc(-c4ccccc4)cs3)cccc21 [Compound 233] | 10 to 100 | < 10 | –
21 | COc1ccc2c(O[C@@H]3C[C@H]4C(=O)N[C@]5(C(=O)NS(=O)(=O)C6(C)CC6)C[C@H]5/C=C\CCCCC[C@H](Nc5ccccn5)C(=O)N4C3)cc(-c3nc(C(C)C)cs3)nc2c1C [Compound 1002] | < 10 | < 10 | –
22 | CC(C)n1c(O[C@@H]2C[C@H]3C(=O)N[C@]4(C(=O)NS(=O)(=O)C5(C)CC5)C[C@H]4/C=C\CCCCC[C@H](NC(=O)OC4CCCC4)C(=O)N3C2)nc2c(-c3nc(C4CCCC4)cs3)cccc21 [Compound 1412] | < 10 | < 10 | –
23 | COc1cccc(-c2cccc3c2nc(O[C@@H]2C[C@H]4C(=O)N[C@]5(C(=O)NS(=O)(=O)C6(C)CC6)C[C@H]5/C=C\CCCCC[C@H](Nc5ccccc5)C(=O)N4C2)n3C(C)C)c1 [Compound 244] | 10 to 100 | < 10 | –
24 | CC(C)n1c(O[C@@H]2C[C@H]3C(=O)N[C@]4(C(=O)NS(=O)(=O)C5(C)CC5)C[C@H]4/C=C\CCCCC[C@H](NC(=O)OC(C)(C)C)C(=O)N3C2)nc2c(-c3nc(C4CCCC4)cs3)cccc21 [Compound 1402] | < 10 | < 10 | –
25 | CC(C)n1c(O[C@@H]2C[C@H]3C(=O)N[C@]4(C(=O)NS(=O)(=O)C5(C)CC5)C[C@H]4/C=C\CCCCC[C@H](NC(=O)OC(C)(C)C)C(=O)N3C2)nc2c(-c3nc(Cc4ccccc4F)cs3)cccc21 [Compound 1720] | < 10 | < 10 | –
26 | CC(C)n1c(O[C@@H]2C[C@H]3C(=O)N[C@]4(C(=O)NS(=O)(=O)C5(C)CC5)C[C@H]4/C=C\CCCCC[C@H](Nc4ccccc4)C(=O)N3C2)nc2c(-c3cccc(OC(F)(F)F)c3)cccc21 [Compound 247] | > 100 | < 10 | –
27 | CC(C)n1c(O[C@@H]2C[C@H]3C(=O)N[C@]4(C(=O)NS(=O)(=O)C5(C)CC5)C[C@H]4/C=C\CCCCC[C@H](NC(=O)OC(C)(C)C)C(=O)N3C2)nc2c(-c3nc(-c4ccccc4Cl)cs3)cccc21 [Compound 1714] | 10 to 100 | < 10 | –
28 | Cc1csc(-c2cccc3c2nc(O[C@@H]2C[C@H]4C(=O)N[C@]5(C(=O)NS(=O)(=O)N(C)C)C[C@H]5/C=C\CCCCC[C@H](NC(=O)OC(C)(C)C)C(=O)N4C2)n3C(C)C)n1 [Compound 228] | < 10 | < 10 | –
29 | Cc1sc(-c2cccc3c2nc(O[C@@H]2C[C@H]4C(=O)N[C@]5(C(=O)NS(=O)(=O)C6CC6)C[C@H]5/C=C\CCCCC[C@H](NC(=O)OC(C)(C)C)C(=O)N4C2)n3C(C)C)nc1C(C)C [Compound 219] | < 10 | < 10 | –
30 | CC(C)n1c(O[C@@H]2C[C@H]3C(=O)N[C@]4(C(=O)NS(=O)(=O)C5(C)CC5)C[C@H]4/C=C\CCCCC[C@H](Nc4cc(F)cc(C(F)(F)F)c4)C(=O)N3C2)nc2cncnc21 [Compound 503] | 10 to 100 | < 10 | –
31 | Cc1cc(-c2nc(C(C)C)cs2)c2nc(O[C@@H]3C[C@H]4C(=O)N[C@]5(C(=O)NS(=O)(=O)N(C)C)C[C@H]5/C=C\CCCCC[C@H](NC(=O)OC(C)(C)C)C(=O)N4C3)n(C(C)C)c2c1 [Compound 1436] | 10 to 100 | < 10 | –
32 | COc1ccc2c(O[C@@H]3C[C@H]4C(=O)N[C@]5(C(=O)NS(=O)(=O)C6(C)CC6)C[C@H]5/C=C\CCCCC[C@H](Nc5ccc(N)cc5)C(=O)N4C3)cc(-c3nc(C(C)C)cs3)nc2c1C [Compound 101] | – | < 10 | 10 to 100
33 | CC(C)n1c(O[C@@H]2C[C@H]3C(=O)N[C@]4(C(=O)NS(=O)(=O)C5(C)CC5)C[C@H]4/C=C\CCCCC[C@H](Nc4ccccc4)C(=O)N3C2)nc2c(-c3ccc(F)c(F)c3)cccc21 [Compound 243] | > 100 | < 10 | –
34 | CC(C)n1c(O[C@@H]2C[C@H]3C(=O)N[C@]4(C(=O)NS(=O)(=O)N(C)C)C[C@H]4/C=C\CCCCC[C@H](NC(=O)OC(C)(C)C)C(=O)N3C2)nc2c(-c3csc(-c4ccccc4)n3)cccc21 [Compound 1740] | 10 to 100 | < 10 | –
35 | CC(C)n1c(O[C@@H]2C[C@H]3C(=O)N[C@]4(C(=O)NS(=O)(=O)C5(C)CC5)C[C@H]4/C=C\CCCCC[C@H](Nc4ccccc4)C(=O)N3C2)nc2c(C(=O)N(C)C)cccc21 [Compound 270] | > 100 | < 10 | –
36 | COc1cnc(O[C@@H]2C[C@H]3C(=O)N[C@]4(C(=O)NS(=O)(=O)C5(C)CC5)C[C@H]4/C=C\CCCCC[C@H](Nc4cccc(F)c4)C(=O)N3C2)c2cc(Cl)ccc12 [Compound 1101] | < 10 | < 10 | –
